ChEMBL document CHEMBL5661982 (Mol Cancer Ther, 2012)
Calls of active or inactive are those of the source. The calls are words filed in the database; no cut-off is given here.

Key:
HT-29 [1] = details: Homo sapiens, dose 50.0 mg/kg/day, route po, time 21.0 day
[2] = Inhibition of human c-Met V1092I mutant expressed in mouse NIH3T3 cells assessed as reduction in HGF-stimulated c-Met phosphorylation incubated for 1 hr by ELISA analysis; details: NIH3T3, 1 h
U-87 MG [3] = experiment: Antitumor activity against human U-87 MG cells xenografted in athymic nu/nu mouse assessed as tumor growth inhibition at 30 mg/kg, po for 9 days relative to control; details: 216 h, read-out: TGI
NCI-H441 = experiment: Inhibition of cell invasion in HGF-stimulated human NCI-H441 cells over expressing c-Met incubated for 48 hrs by Matrigel based analysis; details: NCI-H441, 48 h
GTL 16 cell line [4] = experiment: Antitumor activity against human GTL 16 cells xenografted in athymic nu/nu mouse assessed as tumor growth inhibition at 1.5 mg/kg, sc minipump administered for 14 days relative to control; details: GTL 16, 336 h, read-out: TGI
U-87 MG [5] = experiment: Antitumor activity against human U-87 MG cells xenografted in athymic nu/nu mouse assessed as tumor growth inhibition at 3 mg/kg, po for 9 days relative to control; details: 216 h, read-out: TGI
[6] = biological target: Macrophage-stimulating protein receptor (Mus musculus, UniProt Q62190); experiment: Inhibition of Ron expressed in mouse NIH3T3 cells assessed as reduction in MSP-stimulated RON phosphorylation incubated for 1 hr by sandwich ELISA analysis
U-87 MG [7] = experiment: Antitumor activity against human U-87 MG cells xenografted in athymic nu/nu mouse assessed as tumor growth inhibition at 10 mg/kg, po for 9 days relative to control; details: 216 h, read-out: TGI
GTL 16 cell line [8] = experiment: Antitumor activity against human GTL 16 cells xenografted in athymic nu/nu mouse assessed as tumor growth inhibition at 10 mg/kg, po administered for 16 days relative to control; details: GTL 16, po, 384 h, read-out: TGI
U-87MG ATCC [9] = details: Homo sapiens, dose 5-50 mg/kg, route po, time 3.0 day
COLO 205 [10] = experiment: Antitumor activity against human COLO 205 cells xenografted in athymic nu/nu mouse assessed as tumor growth inhibition at 40 mg/kg/day, po for 18 days relative to control; details: COLO 205, po, 432 h, read-out: TGI
NCI-H1993 = experiment: Antiproliferative activity against human NCI-H1993 cells over expressing c-Met assessed as reduction in cell viability after 48 to 72 hrs by MTT assay
COLO 205 [11] = experiment: Antiproliferative activity against human COLO 205 cells over expressing c-Met assessed as reduction in cell viability after 48 to 72 hrs by MTT assay
GTL 16 [12] = details: Homo sapiens, dose 0.3-10 mg/kg, route po, time 4.0 day
MDA-MB-468 = experiment: Antiproliferative activity against human MDA-MB-468 cells over expressing c-Met assessed as reduction in cell viability after 48 to 72 hrs by MTT assay
GTL 16 [13] = details: Homo sapiens, dose 3-30 mg/kg, route po, time 4.0 day
[14] = biological target: Tyrosine-protein kinase receptor UFO (Homo sapiens, UniProt P30530); experiment: Inhibition of AXL expressed in HEK293 cells assessed as reduction in Gas6-stimulated AXL phosphorylation incubated for 1 hr by sandwich ELISA analysis
[15] = biological target: Hepatocyte growth factor receptor (Canis lupus familiaris, UniProt Q75ZY9); experiment: Inhibition of c-Met phosphorylation in HGF-stimulated dog MDCK cells incubated for 1 hr by sandwich ELISA analysis
GTL 16 cell line [16] = experiment: Antitumor activity against human GTL 16 cells xenografted in athymic nu/nu mouse assessed as tumor growth inhibition at 1 mg/kg, po administered for 16 days relative to control; details: GTL 16, po, 384 h, read-out: TGI
GTL 16 [17] = details: Homo sapiens, dose 1-30 mg/kg, route po
MDA-MB-231 = experiment: Antiproliferative activity against human MDA-MB-231 cells over expressing c-Met assessed as reduction in cell viability after 48 to 72 hrs by MTT assay
HUVEC = experiment: Inhibition of cell invasion in HGF-stimulated HUVEC cells incubated for 48 hrs by Matrigel based analysis; details: Homo sapiens
GTL 16 cell line [18] = experiment: Antitumor activity against human GTL 16 cells xenografted in athymic nu/nu mouse assessed as tumor growth inhibition at 0.5 mg/kg, sc minipump administered for 14 days relative to control; details: GTL 16, 336 h, read-out: TGI
PC-3 = experiment: Antiproliferative activity against human PC-3 cells over expressing c-Met assessed as reduction in cell viability after 48 to 72 hrs by MTT assay
SW-620 [19] = experiment: Antiproliferative activity against human SW620 cells over expressing c-Met assessed as reduction in cell viability after 48 to 72 hrs by MTT assay
[20] = Inhibition of c-Met T11010I mutant phosphorylation in human HOP-92 cells assessed as reduction in HGF-stimulated c-Met phosphorylation incubated for 1 hr by ELISA analysis; details: HOP-92, 1 h
SW-620 [21] = experiment: Antitumor activity against human SW620 cells xenografted in athymic nu/nu mouse assessed as tumor growth inhibition at 40 mg/kg/day, po for 25 days relative to control; details: SW-620, po, 600 h, read-out: TGI
U-87MG ATCC [22] = details: Homo sapiens, dose 5-50 mg/kg, route po, time 3.0 day; remark: listed apart in the source
GTL 16 [23] = details: Homo sapiens, dose 0.3-10 mg/kg, route po, time 4.0 day; remark: listed apart in the source
HT-29 [24] = details: Homo sapiens, dose 50.0 mg/kg/day, route po, time 21.0 day; remark: listed apart in the source
HT-29 [25] = experiment: Inhibition of cell invasion in HGF-stimulated human HT-29 cells over expressing c-Met incubated for 48 hrs by Matrigel based analysis; details: HT-29, 48 h
HT-29 [26] = details: Homo sapiens, dose 50.0 mg/kg/day, route po, time 21.0 day; remark: listed apart in the source
[27] = biological target: Insulin-like growth factor 1 receptor (Mus musculus, UniProt Q60751); experiment: Inhibition of IGF1R expressed in mouse NIH3T3 cells assessed as reduction in IGF-stimulated IGF1R phosphorylation incubated for 1 hr by sandwich ELISA analysis
Chain of Insulin-like growth factor 1 receptor (Q60751 31-737 limits assumed): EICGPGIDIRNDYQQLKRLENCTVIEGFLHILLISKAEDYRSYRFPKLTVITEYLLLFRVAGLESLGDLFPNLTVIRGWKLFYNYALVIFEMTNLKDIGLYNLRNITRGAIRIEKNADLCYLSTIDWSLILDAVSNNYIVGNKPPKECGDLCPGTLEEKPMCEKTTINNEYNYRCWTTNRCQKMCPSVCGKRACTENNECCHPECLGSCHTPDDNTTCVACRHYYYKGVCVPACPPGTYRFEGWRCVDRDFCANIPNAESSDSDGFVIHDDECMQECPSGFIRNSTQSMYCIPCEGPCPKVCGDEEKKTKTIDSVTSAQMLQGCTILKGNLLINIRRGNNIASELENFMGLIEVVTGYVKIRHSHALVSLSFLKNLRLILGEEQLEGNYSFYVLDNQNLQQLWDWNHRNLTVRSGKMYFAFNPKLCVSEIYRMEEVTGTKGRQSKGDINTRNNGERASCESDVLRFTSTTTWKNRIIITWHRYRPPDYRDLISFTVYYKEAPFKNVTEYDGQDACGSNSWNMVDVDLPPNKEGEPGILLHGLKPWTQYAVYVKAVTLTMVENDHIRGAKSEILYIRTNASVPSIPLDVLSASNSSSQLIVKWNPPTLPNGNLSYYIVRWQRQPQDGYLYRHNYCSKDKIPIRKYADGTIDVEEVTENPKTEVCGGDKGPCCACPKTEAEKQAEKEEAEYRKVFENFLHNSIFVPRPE
Chain of Insulin-like growth factor 1 receptor (Q60751 742-1373 limits assumed): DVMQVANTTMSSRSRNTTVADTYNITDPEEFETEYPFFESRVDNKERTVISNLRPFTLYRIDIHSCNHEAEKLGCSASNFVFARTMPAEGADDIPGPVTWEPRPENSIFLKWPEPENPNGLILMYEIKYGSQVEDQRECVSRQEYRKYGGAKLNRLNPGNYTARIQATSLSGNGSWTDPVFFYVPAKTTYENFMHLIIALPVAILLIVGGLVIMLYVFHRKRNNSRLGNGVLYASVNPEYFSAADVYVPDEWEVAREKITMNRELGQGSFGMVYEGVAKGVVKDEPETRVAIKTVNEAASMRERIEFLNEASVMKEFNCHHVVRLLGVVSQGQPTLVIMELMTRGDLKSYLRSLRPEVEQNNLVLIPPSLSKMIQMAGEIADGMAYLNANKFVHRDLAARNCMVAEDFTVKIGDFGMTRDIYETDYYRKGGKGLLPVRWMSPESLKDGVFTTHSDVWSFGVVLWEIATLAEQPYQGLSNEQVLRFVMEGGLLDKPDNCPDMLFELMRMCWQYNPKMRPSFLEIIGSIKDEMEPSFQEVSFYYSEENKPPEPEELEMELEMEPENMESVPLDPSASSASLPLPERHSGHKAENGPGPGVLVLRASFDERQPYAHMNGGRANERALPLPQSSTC

Chain of Macrophage-stimulating protein receptor (Q62190 25-305 limits assumed): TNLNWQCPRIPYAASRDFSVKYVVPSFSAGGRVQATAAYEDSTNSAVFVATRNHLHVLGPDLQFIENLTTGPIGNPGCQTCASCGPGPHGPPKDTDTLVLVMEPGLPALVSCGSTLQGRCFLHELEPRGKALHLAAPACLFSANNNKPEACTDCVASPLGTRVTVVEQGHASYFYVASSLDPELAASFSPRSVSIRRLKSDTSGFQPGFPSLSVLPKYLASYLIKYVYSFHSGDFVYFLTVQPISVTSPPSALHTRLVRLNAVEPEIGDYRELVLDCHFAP
Chain of Macrophage-stimulating protein receptor (Q62190 311-1378 limits assumed): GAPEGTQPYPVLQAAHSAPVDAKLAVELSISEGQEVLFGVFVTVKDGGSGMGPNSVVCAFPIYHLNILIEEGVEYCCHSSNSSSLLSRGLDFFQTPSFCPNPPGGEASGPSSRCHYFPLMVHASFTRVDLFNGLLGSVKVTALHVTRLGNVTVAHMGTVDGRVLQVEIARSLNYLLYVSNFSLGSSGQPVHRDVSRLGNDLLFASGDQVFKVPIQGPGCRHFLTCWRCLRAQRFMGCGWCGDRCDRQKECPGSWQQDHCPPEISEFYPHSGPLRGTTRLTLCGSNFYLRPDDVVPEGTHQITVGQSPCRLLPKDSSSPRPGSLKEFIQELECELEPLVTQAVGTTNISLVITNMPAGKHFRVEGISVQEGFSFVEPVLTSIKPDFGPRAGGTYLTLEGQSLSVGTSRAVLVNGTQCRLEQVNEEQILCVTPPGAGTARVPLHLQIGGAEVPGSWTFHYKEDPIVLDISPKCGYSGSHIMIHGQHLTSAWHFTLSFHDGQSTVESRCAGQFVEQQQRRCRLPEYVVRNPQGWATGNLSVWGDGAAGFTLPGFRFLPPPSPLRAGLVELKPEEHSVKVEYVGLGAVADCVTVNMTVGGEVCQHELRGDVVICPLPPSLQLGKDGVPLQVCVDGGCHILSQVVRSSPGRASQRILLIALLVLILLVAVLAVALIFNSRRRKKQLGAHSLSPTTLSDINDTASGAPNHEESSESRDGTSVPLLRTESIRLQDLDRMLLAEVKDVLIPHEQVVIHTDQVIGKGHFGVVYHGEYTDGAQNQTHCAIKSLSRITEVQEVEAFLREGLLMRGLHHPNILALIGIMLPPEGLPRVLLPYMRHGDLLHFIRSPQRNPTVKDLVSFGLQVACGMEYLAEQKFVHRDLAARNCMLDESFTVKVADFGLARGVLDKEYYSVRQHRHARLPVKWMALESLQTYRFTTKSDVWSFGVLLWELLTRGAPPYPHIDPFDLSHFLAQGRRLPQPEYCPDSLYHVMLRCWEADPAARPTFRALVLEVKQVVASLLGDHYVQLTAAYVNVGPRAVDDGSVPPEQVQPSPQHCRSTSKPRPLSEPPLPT
Chain of Tyrosine-protein kinase receptor UFO (P30530 whole entry): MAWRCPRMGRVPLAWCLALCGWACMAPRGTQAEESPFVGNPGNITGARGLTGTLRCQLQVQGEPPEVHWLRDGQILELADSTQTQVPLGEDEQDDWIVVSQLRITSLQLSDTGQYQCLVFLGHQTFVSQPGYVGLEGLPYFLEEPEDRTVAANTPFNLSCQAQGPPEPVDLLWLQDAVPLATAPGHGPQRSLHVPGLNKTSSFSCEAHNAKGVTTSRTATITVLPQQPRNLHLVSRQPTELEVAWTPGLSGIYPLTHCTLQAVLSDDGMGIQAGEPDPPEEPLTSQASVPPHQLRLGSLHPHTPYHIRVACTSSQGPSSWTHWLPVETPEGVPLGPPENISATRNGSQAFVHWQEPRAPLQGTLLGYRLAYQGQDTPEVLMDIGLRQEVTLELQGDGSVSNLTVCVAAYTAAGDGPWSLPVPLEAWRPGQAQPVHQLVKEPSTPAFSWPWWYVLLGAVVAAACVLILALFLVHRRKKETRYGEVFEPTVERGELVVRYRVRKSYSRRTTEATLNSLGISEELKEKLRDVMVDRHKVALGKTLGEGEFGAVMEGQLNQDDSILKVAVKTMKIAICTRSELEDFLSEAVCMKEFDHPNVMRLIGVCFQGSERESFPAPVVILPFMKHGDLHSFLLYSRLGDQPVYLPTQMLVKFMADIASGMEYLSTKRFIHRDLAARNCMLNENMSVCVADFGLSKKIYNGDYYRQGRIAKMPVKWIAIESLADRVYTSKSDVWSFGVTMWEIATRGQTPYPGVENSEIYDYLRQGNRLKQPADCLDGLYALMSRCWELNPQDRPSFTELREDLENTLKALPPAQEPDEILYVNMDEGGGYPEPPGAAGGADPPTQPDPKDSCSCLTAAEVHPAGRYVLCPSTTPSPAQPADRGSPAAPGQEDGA
Chain of Hepatocyte growth factor receptor (Q75ZY9 whole entry): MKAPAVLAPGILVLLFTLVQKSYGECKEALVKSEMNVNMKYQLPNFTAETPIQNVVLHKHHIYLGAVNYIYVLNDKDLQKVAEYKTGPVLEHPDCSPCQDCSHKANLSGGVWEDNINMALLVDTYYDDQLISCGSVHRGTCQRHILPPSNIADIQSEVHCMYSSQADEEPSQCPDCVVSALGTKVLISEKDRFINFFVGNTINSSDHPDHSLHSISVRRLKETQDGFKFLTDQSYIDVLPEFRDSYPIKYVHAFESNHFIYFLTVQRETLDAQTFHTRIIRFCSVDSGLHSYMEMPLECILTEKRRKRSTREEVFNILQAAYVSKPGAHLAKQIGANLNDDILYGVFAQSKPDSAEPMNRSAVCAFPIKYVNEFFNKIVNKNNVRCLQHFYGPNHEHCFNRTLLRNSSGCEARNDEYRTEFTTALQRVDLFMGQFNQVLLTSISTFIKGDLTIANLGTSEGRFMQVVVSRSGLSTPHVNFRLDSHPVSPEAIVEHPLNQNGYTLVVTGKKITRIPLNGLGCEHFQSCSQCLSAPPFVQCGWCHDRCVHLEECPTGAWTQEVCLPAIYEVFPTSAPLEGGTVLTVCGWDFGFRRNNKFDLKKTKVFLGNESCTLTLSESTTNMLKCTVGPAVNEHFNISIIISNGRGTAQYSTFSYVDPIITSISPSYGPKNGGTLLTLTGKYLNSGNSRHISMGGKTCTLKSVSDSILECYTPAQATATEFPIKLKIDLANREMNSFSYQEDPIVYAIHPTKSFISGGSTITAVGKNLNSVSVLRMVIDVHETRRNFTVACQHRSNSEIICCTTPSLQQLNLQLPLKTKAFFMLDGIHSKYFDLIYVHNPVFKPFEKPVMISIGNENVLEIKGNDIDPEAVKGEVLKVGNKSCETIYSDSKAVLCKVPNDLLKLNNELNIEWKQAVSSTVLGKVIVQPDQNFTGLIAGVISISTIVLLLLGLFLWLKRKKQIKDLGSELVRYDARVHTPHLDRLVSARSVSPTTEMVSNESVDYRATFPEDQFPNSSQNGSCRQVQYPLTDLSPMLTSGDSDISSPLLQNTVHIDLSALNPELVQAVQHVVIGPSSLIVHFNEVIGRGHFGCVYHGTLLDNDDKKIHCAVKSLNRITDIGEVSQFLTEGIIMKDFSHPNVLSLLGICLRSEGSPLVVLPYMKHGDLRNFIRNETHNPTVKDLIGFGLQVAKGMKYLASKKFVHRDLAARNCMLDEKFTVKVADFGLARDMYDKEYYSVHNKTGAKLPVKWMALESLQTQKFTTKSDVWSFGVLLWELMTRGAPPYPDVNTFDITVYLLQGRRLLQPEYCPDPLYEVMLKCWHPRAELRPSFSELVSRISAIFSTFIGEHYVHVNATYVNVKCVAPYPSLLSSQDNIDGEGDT

**Q.** Which inhibition (HT-29 [1]) does the source give for `OCCn1cc(-c2cnc3nnn(Cc4ccc5ncccc5c4)c3n2)cn1` [PF-04217903] here?
**A.** Its inhibition is “inactive”.

**Q.** What about the IC50 [2] of the same compound?
**A.** The IC50 was 16 nM.

**Q.** And the inhibition in vivo at 30 mg/kg (U-87 MG [3])?
**A.** Its inhibition in vivo at 30 mg/kg is 84%.

**Q.** And the IC50 (NCI-H441)?
**A.** The IC50 was 12.5 nM.

**Q.** And the inhibition in vivo at 1.5 mg/kg (GTL 16 cell line [4])?
**A.** The inhibition in vivo at 1.5 mg/kg was 63%.

**Q.** What about the inhibition in vivo at 3 mg/kg (U-87 MG [5]) of the same compound?
**A.** Its inhibition in vivo at 3 mg/kg is 48%.

**Q.** What about the IC50 [6] of the same compound?
**A.** The IC50 was > 10000 nM.

**Q.** And the inhibition in vivo at 10 mg/kg (U-87 MG [7])?
**A.** Its inhibition in vivo at 10 mg/kg is 68%.

**Q.** What about the inhibition in vivo at 10 mg/kg (GTL 16 cell line [8]) of the same compound?
**A.** The inhibition in vivo at 10 mg/kg was 90%.

**Q.** And the inhibition (U-87MG ATCC [9])?
**A.** Its inhibition is “Active”.

**Q.** What about the inhibition in vivo at 40 mg/kg/day (COLO 205 [10]) of the same compound?
**A.** Its inhibition in vivo at 40 mg/kg/day is 44%.

**Q.** What about the IC50 (NCI-H1993) of the same compound?
**A.** The IC50 was 30 nM.

**Q.** And the IC50 (COLO 205 [11])?
**A.** Its IC50 is > 10000 nM.

**Q.** What about the inhibition (GTL 16 [12]) of the same compound?
**A.** Its inhibition is “Dose-Dependent Effect”.

**Q.** What about the IC50 (MDA-MB-468) of the same compound?
**A.** Its IC50 is > 10000 nM.

**Q.** And the inhibition (GTL 16 [13])?
**A.** The inhibition was “Dose-Dependent Effect”.

**Q.** What about the IC50 [14] of the same compound?
**A.** The IC50 was > 10000 nM.

**Q.** What about the IC50 [15] of the same compound?
**A.** The IC50 was 9.5 nM.

**Q.** And the inhibition in vivo at 1 mg/kg (GTL 16 cell line [16])?
**A.** The inhibition in vivo at 1 mg/kg was 64%.

**Q.** And the inhibition (GTL 16 [17])?
**A.** Its inhibition is “Active”.

**Q.** And the IC50 (MDA-MB-231)?
**A.** The IC50 was > 10000 nM.

**Q.** And the IC50 (HUVEC)?
**A.** Its IC50 is 27 nM.

**Q.** What about the inhibition in vivo at 0.5 mg/kg (GTL 16 cell line [18]) of the same compound?
**A.** Its inhibition in vivo at 0.5 mg/kg is 46%.

**Q.** What about the IC50 (PC-3) of the same compound?
**A.** The IC50 was > 10000 nM.

**Q.** What about the IC50 (SW-620 [19]) of the same compound?
**A.** The IC50 was > 10000 nM.

**Q.** And the IC50 [20]?
**A.** The IC50 was 6.7 nM.

**Q.** And the inhibition in vivo at 40 mg/kg/day (SW-620 [21])?
**A.** The inhibition in vivo at 40 mg/kg/day was 45%.

**Q.** What about the inhibition (U-87MG ATCC [22]) of the same compound?
**A.** The inhibition was “Active”.

**Q.** What about the inhibition (GTL 16 [23]) of the same compound?
**A.** Its inhibition is “Dose-Dependent Effect”.

**Q.** And the inhibition (HT-29 [24])?
**A.** Its inhibition is “Active”.

**Q.** What about the IC50 (HT-29 [25]) of the same compound?
**A.** The IC50 was 7 nM.

**Q.** And the inhibition (HT-29 [26])?
**A.** Its inhibition is “Active”.

**Q.** And the IC50 [27]?
**A.** The IC50 was > 10000 nM.
